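Step 1: Grow cells in 96-well plates. Step 2: Expose to compound for 48 hours at 5 concentrations. Step 3: Interpolate endpoints linearly; if unreached, use highest concentration. GI50 marks 50% less growth.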 Calls of active or inactive are those of the source. No stated cut-off is given here; in the data, active = GI50 up to about 1.1 µM and inactive = higher.
Columns and labels:
Experiment in all cases: NCI tumour cell line growth inhibition, 48 h
786-0 = test system: 786-0
A498 = test system: A498
BT-549 = test system: BT-549
KM12 = test system: KM12
M14 = test system: M14
MDA-N = test system: MDA-N
NCI-H226 = test system: NCI-H226
NCI-H23 = test system: NCI-H23
NCI-H460 = test system: NCI-H460
OVCAR-4 = test system: OVCAR-4
OVCAR-5 = test system: OVCAR-5
OVCAR-8 = test system: OVCAR-8
PC-3 = test system: PC-3
RPMI-8226 = test system: RPMI-8226
SF-268 = test system: SF-268
SF-295 = test system: SF-295
SK-MEL-28 = test system: SK-MEL-28
SK-MEL-5 = test system: SK-MEL-5
TK-10 = test system: TK-10
UACC-257 = test system: UACC-257

Measured: GI50

CC(C)=CCN1CC(C)C(=O)Nc2ccccc21 (stereo not given)
inactive: 786-0 > 100 µM | A498 > 100 µM | BT-549 > 100 µM | KM12 > 100 µM | M14 > 100 µM | MDA-N > 100 µM | NCI-H226 65.2 µM | NCI-H23 > 100 µM | NCI-H460 93.3 µM | OVCAR-4 > 100 µM | OVCAR-5 > 100 µM | OVCAR-8 78.9 µM | PC-3 > 100 µM | RPMI-8226 > 100 µM | SF-268 > 100 µM | SF-295 > 100 µM | SK-MEL-28 > 100 µM | SK-MEL-5 42.6 µM | TK-10 > 100 µM | UACC-257 44.7 µM

Nc1cc2c3c(cccc3c1)C(=O)N(c1ccc(OCCN3CCCC3)cc1)C2=O
inactive: 786-0 15.2 µM | A498 36.5 µM | BT-549 15.8 µM | KM12 16.1 µM | M14 20.7 µM | MDA-N 16.6 µM | NCI-H226 14.5 µM | NCI-H23 14.4 µM | NCI-H460 11.5 µM | OVCAR-4 17.1 µM | OVCAR-5 21.1 µM | OVCAR-8 15.9 µM | PC-3 21.4 µM | RPMI-8226 22.4 µM | SF-268 21.3 µM | SF-295 13.5 µM | SK-MEL-28 20.3 µM | SK-MEL-5 18.7 µM | TK-10 17.5 µM | UACC-257 16.2 µM

O=S(=O)(c1ccccc1)[C@H]1[C@@H]2O[C@@H]2C[C@@H]1O
inactive: 786-0 > 100 µM | A498 > 100 µM | BT-549 > 100 µM | KM12 > 100 µM | M14 > 100 µM | MDA-N > 100 µM | NCI-H226 > 100 µM | NCI-H23 > 100 µM | NCI-H460 > 100 µM | OVCAR-4 > 100 µM | OVCAR-5 > 100 µM | OVCAR-8 > 100 µM | PC-3 > 100 µM | RPMI-8226 > 100 µM | SF-268 > 100 µM | SF-295 > 100 µM | SK-MEL-28 > 100 µM | SK-MEL-5 > 100 µM | TK-10 > 100 µM | UACC-257 > 100 µM

O=C(/C=C1\Nc2ccccc2N=C1NC12CC3CC(CC(C3)C1)C2)c1ccc(Br)cc1
inactive: 786-0 > 10 µM | A498 > 10 µM | BT-549 > 10 µM | KM12 > 10 µM | M14 > 10 µM | MDA-N > 10 µM | NCI-H226 > 10 µM | NCI-H23 > 10 µM | NCI-H460 > 10 µM | OVCAR-4 > 10 µM | OVCAR-5 > 10 µM | OVCAR-8 > 10 µM | PC-3 > 10 µM | RPMI-8226 > 10 µM | SF-268 > 10 µM | SF-295 > 10 µM | SK-MEL-28 > 10 µM | SK-MEL-5 > 10 µM | TK-10 > 10 µM | UACC-257 > 10 µM

COc1ccc(C(=O)/C=C/c2cc(O)c(O)cc2F)c(OC)c1
inactive: 786-0 5.45 µM | A498 12.1 µM | BT-549 6.52 µM | KM12 5.16 µM | M14 10.2 µM | MDA-N 2.54 µM | NCI-H226 13.2 µM | NCI-H23 5.3 µM | NCI-H460 3.99 µM | OVCAR-4 12.5 µM | OVCAR-5 15.3 µM | OVCAR-8 14.5 µM | PC-3 5.78 µM | RPMI-8226 3.34 µM | SF-268 7.28 µM | SF-295 5.65 µM | SK-MEL-28 11.8 µM | SK-MEL-5 8.05 µM | TK-10 15.1 µM | UACC-257 10.5 µM

O=C1NC(Nc2cccc(Cl)c2)=N/C1=C\c1ccc(Cl)c(Cl)c1
inactive: 786-0 3.76 µM | A498 4.37 µM | BT-549 12.4 µM | KM12 3.37 µM | M14 4.42 µM | MDA-N 4.52 µM | NCI-H226 3.44 µM | NCI-H23 3.44 µM | NCI-H460 2.24 µM | OVCAR-4 1.9 µM | OVCAR-5 7.91 µM | OVCAR-8 4.34 µM | PC-3 3.66 µM | RPMI-8226 3.99 µM | SF-268 4.94 µM | SF-295 4.05 µM | SK-MEL-28 12.7 µM | SK-MEL-5 6.18 µM | TK-10 9.35 µM | UACC-257 8.07 µM

CCCC/C=C/C/C=C/CCCCCCCCC(=O)OCC1CCCN2CCCCC12 (stereo not given)
inactive: 786-0 > 100 µM | A498 > 100 µM | BT-549 15.6 µM | KM12 > 100 µM | M14 > 100 µM | MDA-N > 100 µM | NCI-H226 > 100 µM | NCI-H23 > 100 µM | NCI-H460 > 100 µM | OVCAR-4 79.8 µM | OVCAR-5 > 100 µM | OVCAR-8 > 100 µM | PC-3 > 100 µM | RPMI-8226 > 100 µM | SF-268 > 100 µM | SF-295 > 100 µM | SK-MEL-28 > 100 µM | SK-MEL-5 > 100 µM | TK-10 > 100 µM | UACC-257 63.2 µM

— ChEMBL document CHEMBL1201862, “PubChem BioAssay data set” (2004)
